From ChEMBL document CHEMBL5325496, “Discovery, SAR Study of GST Inhibitors from a Novel Quinazolin-4(1H)-one Focused DNA-Encoded Library” (J Med Chem, 2023) come the findings set out here.

The species named for one test is Homo sapiens. The test can be described thus: Inhibition of glutathione S-transferase (unknown origin) using CDNB as substrate at 50 uM by spectrophotometric analysis relative to control.
Test [1] deals with T1, Glutathione S-transferase Mu 2 (Homo sapiens, UniProt P28161).
T1 sequence (P28161 whole entry): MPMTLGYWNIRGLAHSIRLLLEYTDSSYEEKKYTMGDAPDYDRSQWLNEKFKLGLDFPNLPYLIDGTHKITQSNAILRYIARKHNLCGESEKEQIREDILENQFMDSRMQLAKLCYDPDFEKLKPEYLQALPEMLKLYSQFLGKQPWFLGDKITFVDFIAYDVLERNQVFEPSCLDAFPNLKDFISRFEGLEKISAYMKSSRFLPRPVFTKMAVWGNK
Nature of the test: Inhibition of human GSTM2 by spectrophotometric analysis.

The target of test [2] is T2, Glutathione-S-transferase (Schistosoma japonicum, UniProt Q26513).
T2 sequence (Q26513 whole entry): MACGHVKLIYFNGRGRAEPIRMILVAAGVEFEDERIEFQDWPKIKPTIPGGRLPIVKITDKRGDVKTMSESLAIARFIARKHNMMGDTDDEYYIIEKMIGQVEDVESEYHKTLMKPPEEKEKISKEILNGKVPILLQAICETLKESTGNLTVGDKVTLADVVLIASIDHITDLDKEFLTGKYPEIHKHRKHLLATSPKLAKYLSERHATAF
The test can be described thus: Inhibition of Schistosoma japonicum GST by spectrophotometric analysis.

The compound `O=c1c2cc(-c3ccccc3-c3nn[nH]n3)ccc2nc(-c2ccc(Cl)s2)n1CCc1ccc(Cl)cc1` came in with an inhibition in the test listed under Homo sapiens of 90.8%.

As to `CS(=O)(=O)c1ccccc1-c1ccc2nc(-c3ccc(Cl)s3)n(Cc3ccc(Cl)cc3)c(=O)c2c1`, the inhibition in the test filed under Homo sapiens was found to be 12.9%.

For the compound `CCOC(=O)CCn1c(-c2ccc(Cl)s2)nc2ccc(-c3ccccc3-c3nn[nH]n3)cc2c1=O`, the inhibition in the test listed under Homo sapiens came out at 87.5%. Consider `O=C(O)CCn1c(-c2ccc(Cl)s2)nc2ccc(-c3ccccc3-c3nn[nH]n3)cc2c1=O`, for which the inhibition in the test filed under Homo sapiens was found to be 87.3%. In addition, the results for the IC50 in test [1] and in test [2] were 2.4 µM and 9.47 µM, respectively.

In the test listed under Homo sapiens, `O=C(O)CCCn1c(-c2ccc(Cl)s2)nc2ccc(-c3ccccc3-c3nn[nH]n3)cc2c1=O` gave an inhibition of 76.6%. For the compound `O=C(O)c1cc(-c2ccc3nc(-c4ccc(Cl)s4)n(Cc4ccc(Cl)cc4)c(=O)c3c2)ccc1F`, in the test listed under Homo sapiens, the inhibition turned out to be 54.4%.

Turning to `NC(=O)c1cccc(-c2ccc3nc(-c4ccc(Cl)s4)n(Cc4ccc(Cl)cc4)c(=O)c3c2)c1`, the inhibition in the test listed under Homo sapiens stood at 24.6%. As for `C=C(CC)C(=O)c1ccc(OCC(=O)O)c(Cl)c1Cl` [ETHACRYNIC ACID], the IC50 in test [1] is greater than 20 µM; in test [2], 1.84 µM. In the test listed under Homo sapiens, `O=C(O)c1ccccc1-c1ccc2nc(-c3ccc(Cl)s3)n(Cc3ccc(Cl)cc3)c(=O)c2c1` yielded an inhibition of 78.7%. Besides, the IC50 is greater than 20 µM in test [1] and 16.6 µM in test [2]. In the test listed under Homo sapiens, `O=c1c2cc(-c3ccccc3-c3nn[nH]n3)ccc2nc(-c2ccc(Cl)s2)n1Cc1ccccc1` came in with an inhibition of 83.6%. For the same compound, the IC50 turned out to be 3.38 µM in test [1] and 8.86 µM in test [2].

Take `Cn1nccc1-c1nc2ccc(-c3ccccc3-c3nn[nH]n3)cc2c(=O)n1Cc1ccc(Cl)cc1`: the inhibition in the test listed under Homo sapiens was 65.3%.

In turn, `O=c1c2cc(-c3ccccc3-c3nn[nH]n3)ccc2nc(-c2ccc(Cl)s2)n1Cc1ccc(Cl)cc1` yielded an inhibition in the test listed under Homo sapiens of 92.5%. For the same compound, the IC50 came out at 4.03 µM in test [1] and 5.46 µM in test [2]. On to `O=c1c2cc(-c3ccccc3-c3nn[nH]n3)ccc2nc(-c2cccs2)n1Cc1ccc(Cl)cc1`, for which the inhibition in the test listed under Homo sapiens was found to be 89%. The IC50 was found to be 6.15 µM in test [1] and 4.26 µM in test [2]. `O=c1c2cc(Br)ccc2nc(-c2ccc(Cl)s2)n1Cc1ccc(Cl)cc1` returned an inhibition in the test listed under Homo sapiens of 20.2%. Take `COC(=O)c1ccccc1-c1ccc2nc(-c3ccc(Cl)s3)n(Cc3ccc(Cl)cc3)c(=O)c2c1`: the inhibition in the test filed under Homo sapiens came out at 24.8%. For the compound `COc1cc(/C=C/C(=O)CC(=O)/C=C/c2ccc(O)c(OC)c2)ccc1O` [CURCUMIN], in test [1], the IC50 was determined as 1.81 µM. Compound `O=C(O)C(Cc1ccc(Cl)cc1)Cn1c(-c2ccc(Cl)s2)nc2ccc(-c3ccccc3-c3nn[nH]n3)cc2c1=O` (stereo not drawn) gave an inhibition in the test listed under Homo sapiens of 98.8%. Moreover, the values for the IC50 in test [1] and in test [2] were 2.02 µM and 1.55 µM, respectively. Take `O=c1c2cc(-c3ccccc3-c3nn[nH]n3)ccc2nc(-c2cccc(Cl)c2)n1Cc1ccc(Cl)cc1`: in the test filed under Homo sapiens, the inhibition is 45.8%. The same measure, in the same setting: for `O=c1c2cc(-c3ccccc3-c3nn[nH]n3)ccc2ncn1Cc1ccc(Cl)cc1` the value was 20.3%. Take `O=C(O)c1cccc(-c2ccc3nc(-c4ccc(Cl)s4)n(Cc4ccc(Cl)cc4)c(=O)c3c2)c1`: the inhibition in the test filed under Homo sapiens is 55.6%.
